# Residues, ends and D or L forms follow the SMILES beside them. *: point of attachment. Cbz = O=C(OCc1ccccc1)*
# Tests used:
# [1] = test system: Stat3-YFP in NIH3T3/v-Src/Stat3-YFP fibroblasts; assay: Fluorescence and confocal microscopy of Stat3-YFP signal; type: cell-based, mouse; parameters: Stat3-YFP fluorescence signal: dose or concentration left out as unconfirmed; settings: for aggregated bodies (aggresomes) of Stat3-YFP: within 5 h of treatment, laser scanning confocal microscopy; for Stat3-YFP fluorescence signal: S3I-M2001, loss evident from 2-5 h, MG132 alone
# Experimental: NIH3T3/vSrc cells were either stably transfected with Stat3-YFP construct (23), or growing in 96-well plates on chamber slides were transiently transfected with the Stat3-YFP plasmid (23) using Lipofectamine 2000 for 24 h according to the manufacturer's protocol (Roche), treated with or without S3I-M2001 for different times, and examined under Nikon Eclipse TE200 fluorescence microscope (Nikon). Images were captured and processed by NIKON NIS element-Basic research software.
# Specimens were then washed 5 times with PBS, covered with cover slides with [sequence] mounting medium containing DAPI, and examined immediately under Leica TCS SP5 confocal microscope (Germany) at appropriate wavelengths depending on GFP or YFP. Images were captured and processed using the Leica TCS SP 5 software.
# [2] = test system: Bcl-xL expression in NIH3T3/v-Src and MDA-MB-435 cells; assay: Western blot analysis for Bcl-xL; type: cell-based, mouse, human
# Text: (§1) Whole-cell lysates prepared in boiling SDS sample-loading buffer. i.p. from lysates using monoclonal anti-Stat3 antibody (Cell Signaling Technology), and the probing of nitrocellulose membranes with primary antibodies and detection of horseradish peroxidase-conjugated secondary antibodies by enhanced chemiluminescence (Amersham Biosciences) were done, as previously described (13, 17, 19, 21). The probes used were anti-Stat3 (Santa Cruz), anti-pTyr705Stat3 (Cell Signaling Technology), anti-YFP antibodies (Santa Cruz), anti-Bcl-xL, anti-pSrc, anti-Src, anti-pJak1, anti-Jak1, anti-pEr1/2 and anti-Erk1/2, and b-actin (Cell Signaling Technology).
# [3] = test system: NIH3T3/v-Src and Panc-1 cells; assay: Soft-agar colony formation assay, cells with active Stat3; type: cell-based, mouse, human; settings: treated every three days
# Experimental: (§2) Colony formation assays were carried out in six-well dishes and colonies were enumerated as previously described (19). Treatment with S3I-M2001 was initiated 1 day after seeding cells in soft-agar suspension by adding […] of medium with or without compound, and repeated every three days, until large colonies were evident.
# Stat3:Stat3 = biological target: T1, Stat3:Stat3 (Mus musculus, UniProt P42227); assay: STAT DNA-binding assay/EMSA in nuclear extracts (hSIE probe); type: biochemical; settings: from EMSA IC50 values
# T1 construct: Nuclear extract preparations from v-Src-transformed (NIH3T3/v-Src) or EGF-stimulated NIH3T3/hEGFR fibroblasts, or tumor cell lines were subjected to EMSA; endogenous in cells; host or cells: NIH3T3/v-Src or EGF-stimulated NIH3T3/hEGFR fibroblasts (nuclear extracts)
# Experimental: (§3) Nuclear extract preparation from cells and EMSA were carried out as previously described (9-12, 16, 18, 40). Nuclear extract preparations from v-Src-transformed (NIH3T3/v-Src) or EGF-stimulated NIH3T3/hEGFR fibroblasts, or tumor cell lines were subjected to EMSA. The 32P-labeled oligonucleotide probe used was hSIE (high affinity sis-inducible element from the c-fos gene, m67 variant, as reported by Wagner et al. (42), and that binds Stat1 and Stat3. Except where indicated, inhibitor compound was pre-incubated with the nuclear extract for 30 min at room temperature prior to incubation with radiolabeled hSIE probe. Where necessary, cells were stimulated with recombinant human EGF (rhEGF) for 5-15 min prior to preparation of nuclear extracts. Bands corresponding to DNA-binding activities were scanned and quantified for each concentration of compound and plotted as percent of control (vehicle) against concentration of compound, from which the IC50 values were derived, as previously reported (9, 10, 42).
# [4] = biological target: T2, Stat3 ubiquitination in NIH3T3/v-Src fibroblasts (Mus musculus, UniProt P42227); assay: Immunoblotting for ubiquitin of Stat3 immunoprecipitates; type: cell-based; settings: up to 24 h treatment
# T2 construct: endogenous in cells; host or cells: NIH3T3/v-Src
# Text: as §1
# [5] = test system: pJak1, pSrc and pErk1/2 (MAPKs); assay: Western blot of whole-cell lysates for non-Stat3 signalling proteins; type: cell-based, mouse; settings: NIH3T3/v-Src fibroblasts
# Text: as §1
# [6] = test system: v-Src-induced Stat3-dependent pLucTKS3 luciferase reporter; assay: Transient transfection luciferase reporter, Stat3-dependent; type: cell-based, mouse; settings: NIH3T3 fibroblasts co-transfected with v-Src
# [7] = test system: Stat3 nuclear localization in EGF-stimulated NIH3T3/hEGFR; assay: Immunofluorescence/confocal microscopy of Stat3 nuclear localization; type: cell-based, mouse; parameters: dose or concentration left out as unconfirmed; settings: for 3 h prior to rhEGF stimulation for 10 min
# Experimental: NIH3T3/hEGFR cells were grown in multi-cell plates and treated with or without S3I-M2001 for 3 h prior to stimulation by rhEGF (10 ng/ml) for 10 min or NIH3T3/vSrc cells were grown in multi-cell plates or chamber slides and cells were fixed with 4% paraformaldehyde for 15 min. Cells were washed 3 times in PBS, permeabilized with 0.2% Triton X for 5 min, and further washed 3-4 times with PBS. Specimens were then blocked in 5% goat serum for 60 min and incubated with Stat3 (Cell Signaling Technology) or Hook2 (Santa Cruz, Santa Cruz, Calif.) antibody at 1:50 dilution at 4° C. overnight. Subsequently, cells were rinsed 4-5 times in PBS, incubated with Alexa fluor 488 rabbit antibody (Molecular probe, Eugene, Oreg.) for (Stat3 detection) or NL637 goat antibody (R&D Systems, Minneapolis, Minn.) for Hook2 for 1-2 h at room temperature in the dark. Specimens were then washed 5 times with PBS, covered with cover slides with [sequence] mounting medium containing DAPI, and examined immediately under Leica TCS SP5 confocal microscope (Germany) at appropriate wavelengths depending on GFP or YFP. Images were captured and processed using the Leica TCS SP 5 software.
# NIH3T3/v-Ras = assay: Soft-agar colony formation assay, v-Ras transformed fibroblasts; type: cell-based, mouse; settings: NIH3T3/v-Ras lacking constitutively-active Stat3
# Experimental: as §2
# [8] = test system: NIH3T3/v-Src, MDA-MB-231 and MDA-MB-435 cells; assay: TUNEL and Annexin V binding/Flow Cytometry apoptosis, cells harbouring aberrant Stat3; type: cell-based, mouse, human; parameters: apoptosis (Annexin V) after transfection with Stat3 SH2 domain: dose or concentration left out as unconfirmed
# Experimental: (§4) In some cases, cells were first transfected with the plasmid for the Stat3 SH2 (ST3-SH2) domain or mock-transfected (pcDNA3 empty vector) for 24 h or untransfected prior to treatment with S3I-M2001 for an additional 24-48 h. Cells were then detached and analyzed by Annexin V binding (BD Biosciences, San Diego) according to the manufacturer's protocol and Flow Cytometry to quantify the percent apoptosis.
# Lck SH2-GST = Lck SH2-GST (Homo sapiens, UniProt P06239); assay: Lck-SH2 domain ELISA assay; type: binding; parameters: dose or concentration left out as unconfirmed; settings: S3I-M2001
# Experimental: An ELISA assay for the binding of Lck-SH2 domain with its conjugate phosphopeptide, biotinyl-e-Ac-EPQpYEEIEL-OH, was carried out, as previously described (13, 22). Absorbance reading (450 nm) for the peroxidase reaction was determined with an ELISA plate reader.
# MDA-MB-231 [9] = assay: Cell migration assay (Bio-Coat chambers); type: cell-based, human; parameters: dose or concentration left out as unconfirmed; settings: S3I-M2001, 24 h
# Experimental: (§5) Cell migration experiments were carried out using Bio-Coat migration chambers (Becton Dickinson, Franklin, N.J.) of 24-well companion plates with cell culture inserts containing […] pore size filters, according to the manufacturer's protocol. […] After 24-h incubation (37° C., 5% CO2), the filters were removed and the upper surface was wiped with a cotton-tipped applicator to remove non-migratory cells. Cells that had migrated through the filter pores and attached to bottom surface of the filter were fixed and stained. The membranes were mounted on glass slides and cells from 10 random microscopic fields (×400 magnification) were counted. Cell invasion experiments were performed using same Bio-Coat invasion chambers (Becton Dickenson), as already described, except that here, filters ([…]) were used coated with the basement membrane matrigel. Percent inhibition is calculated as 100−y, where y equals residual number of stained cells in the treated/total number in the control ×100.
# Panc-1 [10] = assay: Cell migration assay (Bio-Coat chambers); type: cell-based, human; parameters: dose or concentration left out as unconfirmed; settings: S3I-M2001, 24 h
# Experimental: as §5
# Stat3:Stat3 dimer = biological target: T3, Stat3:Stat3 dimer (Homo sapiens, UniProt P40763); assay: Dissociation-reassociation analysis with EMSA (pooled lysates of activated Stat1 and Stat3); type: biochemical; settings: pooled lysates of activated Stat1 and Stat3, increasing concentration
# T3 construct: made in house; host or cells: Sf-9 insect cells (baculovirus; co-infected with Jak1 and c-Src)
# Text: Infect of Sf-9 cells with Stat1, Stat3, Jak1, and c-Src recombinant baculoviruses and preparation of the cell lysates containing activated Stat1 or Stat3 have been previously described (9, 21).
# In the previously reported dissociation-reassociation analysis (9, 10, 20), two independently-prepared cell lysate, one containing only activated Stat3:Stat3 dimer and the other containing only activated Stat1:Stat1 dimer (21), were mixed together and pre-treated with or without increasing concentration of S3I-M2001 and subjected to STAT DNA-binding assay with EMSA analysis.
# The dissociation-reassociation analysis with EMSA analysis was performed, as previously done (10, 20).
# MDA-MB-231 [11] = assay: Matrigel invasion assay; type: cell-based, human; parameters: dose or concentration left out as unconfirmed; settings: matrigel-coated filters, 24 h
# Experimental: as §5
# Panc-1 [12] = assay: Matrigel invasion assay; type: cell-based, human; parameters: dose or concentration left out as unconfirmed; settings: matrigel-coated filters, 24 h
# Experimental: as §5
# NIH3T3/v-Src [13] = assay: Matrigel invasion assay; type: cell-based, mouse; parameters: dose or concentration left out as unconfirmed; settings: matrigel-coated filters, 24 h
# Experimental: as §5
# [14] = test system: MDA-MB-435, MDA-MB-231, Panc-1 cancer cells and NIH3T3/v-Src fibroblasts; assay: WST-1 cell viability assay, cells harbouring constitutively-active Stat3; type: cell-based, human, mouse; settings: WST-1 and trypan blue exclusion/cell counting
# Experimental: as §4
# [15] = test system: GFP in NIH3T3/v-Src/GFP fibroblasts
# [16] = test system: constitutively-active Stat3; assay: Constitutive Stat3 Tyr phosphorylation and activation in cells (EMSA, Western blot, immunocytostaining); type: cell-based, mouse, human; settings: NIH3T3/v-Src, MDA-MB-231 and MDA-MB-435 cell lines
# Experimental: as §3, with “42). […]” for “42).”
# NIH3T3/v-Src [17] = assay: Cell migration assay (Bio-Coat chambers); type: cell-based, mouse; parameters: dose or concentration left out as unconfirmed; settings: S3I-M2001, 24 h
# Experimental: as §5
# [18] = test system: MDA-MB-231 tumor xenografts; assay: Human breast tumor xenografts in athymic nude mice; type: in vivo, mouse
# Experimental: Six-week-old female athymic nude mice were purchased from Harlan and maintained in the institutional animal facilities approved by the American Association for Accreditation of Laboratory Animal Care. Athymic nude mice were injected subcutaneously in the left flank area with 5×10^6 human breast cancer MDA-MB-231 cells in […] of PBS. After 5 to 10 days, tumors of a diameter of 3 mm were established. Animals were grouped so that the mean tumor sizes in all groups were nearly identical, given S3I-[…] i.v. at 5, 10 and 20 mg/kg every 2 or every 3 days for 26 days and monitored every 2 or 3 days, and tumor sizes were measured with calipers. Tumor volume was calculated according to the formula V=0.52×a2×b, where a, smallest superficial diameter, b, largest superficial diameter.
# [19] = biological target: Stat3 activation over that of Stat1 (Mus musculus, UniProt P42227); assay: rhEGF-induced STAT activation in NIH3T3/hEGFR fibroblasts (EMSA); type: cell-based
# Experimental: as §3
# [20] = test system: normal NIH3T3, MCF-10A, MDA-MB-453, HUVEC, HAEC and HL-60 cells; assay: TUNEL and Annexin V apoptosis, cells without aberrant Stat3; type: cell-based, mouse, human; settings: cells that do not contain aberrant Stat3
# Experimental: as §4
# T1 sequence (P42227 2-770 limits assumed): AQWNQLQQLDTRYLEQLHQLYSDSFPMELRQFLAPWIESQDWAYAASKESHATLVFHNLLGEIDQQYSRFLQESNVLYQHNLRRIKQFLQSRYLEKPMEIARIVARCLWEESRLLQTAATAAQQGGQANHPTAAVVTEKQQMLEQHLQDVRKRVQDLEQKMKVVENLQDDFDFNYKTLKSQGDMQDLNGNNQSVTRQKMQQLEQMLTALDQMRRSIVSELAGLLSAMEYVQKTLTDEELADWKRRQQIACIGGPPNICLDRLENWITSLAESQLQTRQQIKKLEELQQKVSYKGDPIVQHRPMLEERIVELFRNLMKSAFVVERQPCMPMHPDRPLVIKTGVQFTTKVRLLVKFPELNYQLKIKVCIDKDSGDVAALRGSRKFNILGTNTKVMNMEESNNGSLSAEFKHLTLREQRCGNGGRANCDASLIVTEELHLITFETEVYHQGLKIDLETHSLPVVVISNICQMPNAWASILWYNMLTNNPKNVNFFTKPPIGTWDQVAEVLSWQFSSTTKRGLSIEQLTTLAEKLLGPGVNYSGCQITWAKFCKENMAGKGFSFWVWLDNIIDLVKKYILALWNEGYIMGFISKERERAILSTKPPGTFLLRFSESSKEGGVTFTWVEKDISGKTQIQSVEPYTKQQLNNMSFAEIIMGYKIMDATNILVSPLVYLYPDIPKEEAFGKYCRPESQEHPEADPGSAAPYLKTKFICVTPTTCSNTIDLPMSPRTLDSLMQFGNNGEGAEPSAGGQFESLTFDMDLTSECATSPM
# T3 sequence (P40763 whole entry): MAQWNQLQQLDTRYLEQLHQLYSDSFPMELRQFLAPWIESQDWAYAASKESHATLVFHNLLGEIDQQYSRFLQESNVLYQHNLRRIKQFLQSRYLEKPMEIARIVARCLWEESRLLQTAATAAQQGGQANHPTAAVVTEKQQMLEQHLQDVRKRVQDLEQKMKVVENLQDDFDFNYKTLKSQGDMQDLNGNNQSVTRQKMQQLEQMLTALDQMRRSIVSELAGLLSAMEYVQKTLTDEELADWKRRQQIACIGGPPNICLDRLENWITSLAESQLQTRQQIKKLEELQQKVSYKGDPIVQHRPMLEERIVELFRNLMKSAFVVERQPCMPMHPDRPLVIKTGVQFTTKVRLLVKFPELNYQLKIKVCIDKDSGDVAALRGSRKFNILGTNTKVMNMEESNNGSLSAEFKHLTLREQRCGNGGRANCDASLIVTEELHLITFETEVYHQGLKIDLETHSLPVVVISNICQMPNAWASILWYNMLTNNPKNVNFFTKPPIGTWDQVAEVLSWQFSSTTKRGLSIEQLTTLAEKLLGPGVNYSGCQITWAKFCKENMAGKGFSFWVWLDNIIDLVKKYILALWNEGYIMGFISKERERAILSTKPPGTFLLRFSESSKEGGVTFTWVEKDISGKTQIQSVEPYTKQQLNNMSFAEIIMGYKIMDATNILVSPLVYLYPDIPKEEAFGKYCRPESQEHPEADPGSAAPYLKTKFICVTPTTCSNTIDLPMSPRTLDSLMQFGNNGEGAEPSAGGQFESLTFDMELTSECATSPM
# Sequence of Lck SH2-GST (P06239 127-224 limits assumed): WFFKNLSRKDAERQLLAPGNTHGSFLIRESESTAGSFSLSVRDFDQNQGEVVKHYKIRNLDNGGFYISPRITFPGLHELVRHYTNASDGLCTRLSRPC
# T2 sequence (P42227 whole entry): as the sequence (P40763 whole entry) above, with E760D counted along it
# Sequence of Stat3 activation over that of Stat1 (P42227 whole entry): as the sequence (P40763 whole entry) above, with E760D counted along it
structure (smiles),measurement,setting,value
"N.N.[Cl][Pt][Cl] [Cisplatin, reference compound]",aggregated bodies (aggresomes) of Stat3-YFP,[1],no such effect
CCCCCCNC(=O)c1nc(-c2cccc3ccccc23)oc1Cc1ccc(OP(=O)(O)O)cc1 [S3I-M2001],Bcl-xL expression,[2],diminished Bcl-xL expression
same,growth in soft-agar,[3],blocked growth in soft-agar
same,preferential inhibition of Stat3 activity over Stat1,Stat3:Stat3,2 fold
same,level of Stat3 ubiquitination,[4],strong and time-dependent increase
same,"pJak1, pSrc and pErk1/2 levels",[5],not repressed
same,Stat3-dependent pLucTKS3 luciferase reporter activity,[6],inhibited
same,EGF-induced nuclear staining of Stat3,[7],significantly attenuated
same,growth in soft-agar,NIH3T3/v-Ras,no appreciable effects
same,apoptosis (Annexin V) after transfection with Stat3 SH2 domain,"[8]; 3T3/v-Src/ST3-SH2 versus mock-transfected or untransfected, 24 h",diminished apoptosis
same,"apoptosis (TUNEL, Annexin V)","[8]; NIH3T3/v-Src, MDA-MB-231, MDA-MB-435, 48 h (TUNEL)",strong apoptosis
same,binding of Lck SH2-GST to phosphopeptide biotinyl-e-Ac-EPQpYEEIEL-OH,Lck SH2-GST,minimal effect
same,inhibition of migration,MDA-MB-231 [9],37%
same,inhibition of migration,Panc-1 [10],21%
same,Stat3:Stat3 DNA-binding activity in pooled lysates,Stat3:Stat3 dimer,concentration-dependent diminution
same,inhibition of invasion,MDA-MB-231 [11],48%
same,inhibition of invasion,Panc-1 [12],38%
same,inhibition of invasion,NIH3T3/v-Src [13],28%
same,selective loss of viability of cells with constitutively-active Stat3 versus cells lacking it,[14],greater than 2 fold
same,GFP signal change,[15],no evidence of GFP signal change
same,constitutive Stat3 Tyr phosphorylation and activation,[16],inhibited constitutive Stat3 Tyr phosphorylation and activation
same,inhibition of migration,NIH3T3/v-Src [17],76%
same,Stat3-YFP fluorescence signal,[1],time-dependent decrease
same,aggregated bodies (aggresomes) of Stat3-YFP,[1],accompanied by aggregated bodies
same,viability of animals,"[18]; highest dose applied, 20 mg kg-1 i.v.",remained viable
same,growth of tumors (tumor volume),"[18]; i.v. 5, 10 and 20 mg kg-1 every 2 or 3 days for 26 days",strongly inhibited growth of tumors
same,Stat3 activity and pTyr levels in residual tumor tissue,"[18]; tumors T1 and T2, 3 days after last 5 mg kg-1 injection, EMSA and Western blot",abrogated Stat3 activity and pTyr levels
same,rhEGF-induced Stat3 activation versus Stat1,[19],preferentially inhibited
same,"apoptosis (TUNEL, Annexin V)",[20],minimal effect
"CC(C)C[C@@H](C=O)NC(=O)[C@H](CC(C)C)NC(=O)[C@H](CC(C)C)NC(=O)OCc1ccccc1 [MG132, reference compound] (Cbz-Leu-Leu-Leu-aldehyde)",GFP signal change,[15],no evidence of GFP signal change
same,Stat3-YFP fluorescence signal,[1],no appreciable effect
